The record followed here is ChEMBL document CHEMBL5365417, “The development of diphenyleneiodonium analogs as GPR3 agonists” (Bioorg Med Chem Lett, 2023).

For one assay, the target named is T1, G-protein coupled receptor 3 (Homo sapiens, UniProt P46089). Nature of the assay: Agonist activity at human GPR3 expressed in HEK293 cells assessed as increase in cAMP accumulation incubated for 30 mins by HTRF assay. In kind it is functional, cell-based. A general note: cAMP levels reflect the balance of adenylyl cyclase and phosphodiesterase activity.
T1 sequence (P46089 whole entry): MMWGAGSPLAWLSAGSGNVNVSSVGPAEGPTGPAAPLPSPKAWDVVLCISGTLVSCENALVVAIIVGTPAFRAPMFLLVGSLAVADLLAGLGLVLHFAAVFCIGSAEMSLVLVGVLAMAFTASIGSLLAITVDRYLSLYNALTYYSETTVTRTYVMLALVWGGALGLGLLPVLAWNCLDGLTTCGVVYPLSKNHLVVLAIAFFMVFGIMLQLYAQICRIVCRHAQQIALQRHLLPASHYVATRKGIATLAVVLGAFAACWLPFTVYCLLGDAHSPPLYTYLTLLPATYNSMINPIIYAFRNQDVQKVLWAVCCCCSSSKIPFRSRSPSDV
The term EC50 denotes the concentration at which the effect is half-maximal. With `Fc1ccc2c(c1)oc1ccccc12`, the half-maximal effective concentration (EC50) stood at 105 µM.
Consider `CC1(N)c2ccccc2-c2ccccc21`, for which the concentration giving a half-maximal response (EC50) was over 100 µM.
Still for that read-out and setting: the value for `NC1c2ccccc2-c2ccccc21` was over 100 µM.
For the molecule `Cc1nc2ccccc2c2ccccc12`, the EC50 was 86 µM.
As to `c1ccc2c(c1)sc1ccccc12` [DIBENZOTHIOPHENE], the EC50 was found to be 81 µM.
The same measure, in the same setting: the same measure for `c1ccc2c(c1)cnc1ccccc12` [PHENANTHRIDINE]: 67 µM.
In the case of `CC1c2ccccc2-c2ccccc2N1C` (stereo not given), the half-maximal effective concentration (EC50) was 60 µM.
Take `O=c1[nH]c2ccccc2c2ccccc12`: the EC50 turned out to be 45 µM.
On the same count and under the same terms, the value for `CC(C)(C)[S+]([O-])N=C1c2ccccc2-c2ccccc21` (stereo not given) was 66 µM; that for `C[N+]1(C)c2ccccc2-c2ccccc21` was 114 µM.
As to `Cn1c2ccccc2c2ccccc21`, the 50% effective concentration (EC50) was determined as 40 µM.
Turning to `C[n+]1cc2ccccc2c2ccccc21`, the half-maximal effective concentration (EC50) came out at 382 µM.
On to `O=S1(=O)c2ccccc2-c2ccccc21`, for which the EC50 came out at 5.1 µM.
As for `CN(C)C1c2ccccc2-c2ccccc21`, the EC50 came out at 21 µM.
As for `FC1(F)Oc2cc3c(cc2O1)-c1ccccc1[I+]3`, the concentration for a half-maximal effect (EC50) came to 19.3 µM.
With `CN(C)C1(C)c2ccccc2-c2ccccc21`, the EC50 is over 100 µM.
On to `O=CNC1c2ccccc2-c2ccccc21`, for which the half-maximal effective concentration (EC50) turned out to be 158 µM.
For `O=[N+]([O-])c1ccc2c(c1)[I+]c1ccccc1-2`, the EC50 came to 1.34 µM.
Regarding `c1ccc2c(c1)[nH]c1ccccc12` [CARBAZOLE], the 50% effective concentration (EC50) came out at 7.6 µM.

The target of the next assay is T1, G-protein coupled receptor 3. Description: Agonist activity at human GPR3 expressed in HEK293 cells assessed as increase in cAMP accumulation at 1 uM incubated for 30 mins by AlphaScreen assay relative to control. In kind it is functional, cell-based.
Consider `CCCCCCCCCCCCC/C=C/[C@@H](O)[C@@H](N)COP(=O)(O)O`, for which the Activity turned out to be 20%.
